Reference: US20080118494A1, “Compositions For Detection Of Latent Hiv Reactivation And Methods Of Using The Same” (priority 2004, published 2008)

Test system: latent HIV-1 infection in human PBMCs
Assay: Reactivation of latent HIV-1 in in vitro infected, EGFP-negative sorted human PBMCs
Assay type: cell-based
Conditions: representative donor, 24 h post stimulation, untreated background 0.23%
Procedure: PBMCs from three different donors were infected with HIV-1 NLENG1-IRES and on day three post infection were treated with indinavir to inhibit de novo infection. On day seven following infection, HIV-1 expressing EGFP^+ cells were removed from the cultures using fluorescence activated cell sorting. (A) Following the sorting procedure, the EGFP-negative cells were cultured in supplemented RPMI 1640 to determine levels of spontaneous reactivation (Control), stimulated with anti-CD3 antibody clone UCHT1 (CD3), the costimulatory anti-CD28 antibody clone CD28.2 (cCD28) and with a combination of these two antibodies (cCD28/CD3). […] Numbers indicate the percentage of EGFP positive cells and the mean channel fluorescence intensity of the EGFP-positive cell population. […]
In vitro generation and analysis of HIV-1 latency in PBMCs. […] In the absence of IL-2, the cells were cultured for seven days following infection and then subjected to fluorescence activated cell sorting (FACS) to remove EGFP positive, HIV-1 expressing cells. The EGFP negative cell fraction was then activated with the indicated stimuli and reactivation of latent HIV-1 expression was measured 24 h post stimulation by determining EGFP fluorescence using FACS analysis. […]

`CCCCCCCCCCCCCC(=O)O[C@@H]1[C@@H](C)[C@@]2(O)[C@@H](C=C(CO)C[C@]3(O)C(=O)C(C)=C[C@@H]23)[C@@H]2C(C)(C)[C@]12OC(C)=O` [PMA, 13-phorbol-12-myristate acetate] was tested. Which “HIV-1 reactivation as percentage of EGFP+ cells” value did it give?
Its value is 0.60%.
